Data reported in patent US20250313535A1, “ALPHA 4 BETA 7 INTEGRIN MODULATORS AND USES THEREOF” (DICE MOLECULES SV, INC., priority 2022, published 2025).

Columns and labels:
α4β7 integrin = α4β7 integrin (Homo sapiens (Human), UniProt P13612+P26010); test: Integrin Adhesion Assay: Protocol 4 (MAdCAM-coated plate, RPMI-8866 cells with stable LOF mutation of the ITGB1 gene); type: cell-based; conditions: Protocol 4; RPMI-8866 cells with LOF mutation of ITGB1, MAdCAM; read-out: Mean IC50 α4β7 KO
Summary of the method: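 RPMI-8866 cells with CRISPR/Cas9 knockout of ITGB1 (2×10^6/mL) were added to MAdCAM-coated wells with compound (1% DMSO) in HEPES/NaCl buffer with 1 mM MnCl2, 0.1 mM CaCl2 and 1% BSA, then incubated 1 h at 37 °C. After four washes, adherent cells were quantified by CellTiter-Glo luminescence. Percent inhibition versus DMSO and control compound was fitted to 4-parameter curves.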

α4β1 integrin = α4β1 integrin (Homo sapiens (Human), UniProt P05556+P13612); test: Integrin Adhesion Assay: Protocol 5 (VCAM-coated plate, RPMI-8866 cells with stable LOF mutation of the ITGB7 gene); type: cell-based; conditions: Protocol 5; RPMI-8866 cells with LOF mutation of ITGB7, VCAM; read-out: Mean IC50 α4β1 KO
α4β1 integrin, sequence (P13612 34-1032): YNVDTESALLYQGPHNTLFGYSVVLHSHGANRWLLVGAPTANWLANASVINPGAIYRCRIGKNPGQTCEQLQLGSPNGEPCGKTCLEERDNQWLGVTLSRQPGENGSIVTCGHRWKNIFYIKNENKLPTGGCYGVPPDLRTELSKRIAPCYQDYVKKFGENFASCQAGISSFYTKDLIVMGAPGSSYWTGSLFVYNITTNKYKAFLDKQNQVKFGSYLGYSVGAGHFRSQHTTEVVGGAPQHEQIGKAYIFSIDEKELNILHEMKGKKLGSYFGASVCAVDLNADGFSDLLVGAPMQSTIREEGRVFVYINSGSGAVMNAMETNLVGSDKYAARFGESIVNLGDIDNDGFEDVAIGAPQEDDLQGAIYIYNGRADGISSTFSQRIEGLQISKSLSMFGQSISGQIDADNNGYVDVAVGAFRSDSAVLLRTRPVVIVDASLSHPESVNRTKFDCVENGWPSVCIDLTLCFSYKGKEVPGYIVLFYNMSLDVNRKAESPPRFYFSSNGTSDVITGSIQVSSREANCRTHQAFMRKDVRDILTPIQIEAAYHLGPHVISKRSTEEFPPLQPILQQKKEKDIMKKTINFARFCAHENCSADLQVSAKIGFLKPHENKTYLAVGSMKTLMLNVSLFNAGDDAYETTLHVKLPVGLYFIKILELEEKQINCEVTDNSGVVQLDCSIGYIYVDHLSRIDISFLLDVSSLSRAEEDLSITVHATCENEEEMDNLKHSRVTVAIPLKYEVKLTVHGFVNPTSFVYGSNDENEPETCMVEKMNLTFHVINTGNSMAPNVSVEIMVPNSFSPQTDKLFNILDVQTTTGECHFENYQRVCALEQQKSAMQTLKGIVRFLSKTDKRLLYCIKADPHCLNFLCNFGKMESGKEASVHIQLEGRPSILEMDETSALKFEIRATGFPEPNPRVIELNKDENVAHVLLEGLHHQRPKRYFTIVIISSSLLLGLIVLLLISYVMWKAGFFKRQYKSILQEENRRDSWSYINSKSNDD
α4β1 integrin, sequence (P05556 21-798): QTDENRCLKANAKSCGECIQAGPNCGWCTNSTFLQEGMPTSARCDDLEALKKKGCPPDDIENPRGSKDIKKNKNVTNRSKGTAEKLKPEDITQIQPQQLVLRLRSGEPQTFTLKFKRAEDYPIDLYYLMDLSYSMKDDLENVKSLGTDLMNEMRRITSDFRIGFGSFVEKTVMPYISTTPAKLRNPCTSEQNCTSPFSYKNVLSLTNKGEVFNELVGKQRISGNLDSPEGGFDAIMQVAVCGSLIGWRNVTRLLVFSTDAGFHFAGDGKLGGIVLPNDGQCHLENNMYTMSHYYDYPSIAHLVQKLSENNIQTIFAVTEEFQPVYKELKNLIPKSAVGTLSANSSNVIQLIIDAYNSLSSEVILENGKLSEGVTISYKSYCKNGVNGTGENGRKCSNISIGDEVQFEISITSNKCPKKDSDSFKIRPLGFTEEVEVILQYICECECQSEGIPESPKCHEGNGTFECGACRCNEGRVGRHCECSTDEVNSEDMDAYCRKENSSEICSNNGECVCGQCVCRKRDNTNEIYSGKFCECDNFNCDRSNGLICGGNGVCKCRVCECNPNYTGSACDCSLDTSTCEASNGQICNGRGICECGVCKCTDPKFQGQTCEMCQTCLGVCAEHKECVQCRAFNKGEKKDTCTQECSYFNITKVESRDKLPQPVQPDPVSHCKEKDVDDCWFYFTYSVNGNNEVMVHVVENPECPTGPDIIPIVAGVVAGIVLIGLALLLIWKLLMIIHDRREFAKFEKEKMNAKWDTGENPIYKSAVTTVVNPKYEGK
Summary of the method: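 RPMI-8866 B cells with CRISPR/Cas9 ITGB7 knockout (clonal, verified by flow cytometry) adhered to VCAM-coated wells for 1 h at 37° C in HEPES/NaCl buffer with 1 mM MnCl2, 0.1 mM CaCl2, 1% BSA, 1% DMSO. Bound cells quantified by CellTiter-Glo luminescence after washing; % inhibition versus DMSO and control, 4-parameter fit.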

α4β7 integrin, sequence (P13612 34-1032): as the sequence (P13612 34-1032) above
α4β7 integrin, sequence (P26010 20-798): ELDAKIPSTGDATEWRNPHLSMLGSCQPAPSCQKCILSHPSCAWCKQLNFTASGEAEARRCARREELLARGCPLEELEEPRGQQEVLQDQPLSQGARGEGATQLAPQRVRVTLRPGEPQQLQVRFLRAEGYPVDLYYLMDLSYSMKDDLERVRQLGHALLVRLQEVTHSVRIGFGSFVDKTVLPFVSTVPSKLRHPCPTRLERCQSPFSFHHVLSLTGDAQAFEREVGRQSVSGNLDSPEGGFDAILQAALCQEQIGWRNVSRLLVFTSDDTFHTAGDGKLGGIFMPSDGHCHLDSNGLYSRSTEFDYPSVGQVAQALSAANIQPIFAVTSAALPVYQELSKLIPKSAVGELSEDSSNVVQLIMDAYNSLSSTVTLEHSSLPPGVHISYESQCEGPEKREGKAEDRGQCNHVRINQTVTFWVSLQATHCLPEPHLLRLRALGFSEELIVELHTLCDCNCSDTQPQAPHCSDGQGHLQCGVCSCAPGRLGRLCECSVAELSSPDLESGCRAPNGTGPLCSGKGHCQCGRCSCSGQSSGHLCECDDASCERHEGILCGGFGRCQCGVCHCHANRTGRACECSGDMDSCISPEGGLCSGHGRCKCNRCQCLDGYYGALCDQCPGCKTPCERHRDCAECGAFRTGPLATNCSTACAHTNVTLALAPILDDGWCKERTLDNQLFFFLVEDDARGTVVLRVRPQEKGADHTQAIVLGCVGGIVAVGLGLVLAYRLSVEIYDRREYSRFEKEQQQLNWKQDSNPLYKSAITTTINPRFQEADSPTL

Row | Compound | IC50 (α4β7 integrin) | IC50 (α4β1 integrin)
1 | O=C(O)[C@H](Cc1cccc2c(-c3ncc(CN4CCC(F)(F)CC4)c4ccccc34)cccc12)NC(=O)C1(C(F)(F)F)CCN(CC(F)(F)F)CC1 [Compound 853] | 10 to 100 nM | > 1000 nM
2 | CC1(C)CCN(Cc2cnc(-c3cccc4c(C[C@H](NC(=O)C5(C(F)(F)F)CCN(CC(F)(F)F)CC5)C(=O)O)cccc34)c3ccccc23)CC1 [Compound 854] | < 10 nM | 100 to 1000 nM
3 | O=C(O)[C@H](Cc1cccc2c(-c3ncc(CN4CCC[C@@H](F)C4)c4ccccc34)cccc12)NC(=O)C1(C(F)(F)F)CCN(CC(F)(F)F)CC1 [Compound 855] | 10 to 100 nM | > 1000 nM
4 | O=C(O)[C@H](Cc1cccc2c(-c3ncc(CN4CCOC(C(F)(F)F)C4)c4ccccc34)cccc12)NC(=O)C1(C(F)(F)F)CCN(CC(F)(F)F)CC1 (some centres unmarked) [Compound 856] | 10 to 100 nM | > 1000 nM
5 | O=C(O)[C@H](Cc1cccc2c(-c3ncc(CN4CCC5(CCCCC5)CC4)c4ccccc34)cccc12)NC(=O)C1(C(F)(F)F)CCN(CC(F)(F)F)CC1 [Compound 857] | 10 to 100 nM | > 1000 nM
6 | O=C(O)[C@H](Cc1cccc2c(-c3ncc(CN4CCOC(C(F)(F)F)C4)c4ccccc34)cccc12)NC(=O)C1(C(F)(F)F)CCN(CC(F)F)CC1 (some centres unmarked) [Compound 858] | 10 to 100 nM | > 1000 nM
7 | O=C(O)[C@H](Cc1cccc2c(-c3ncc(CN4CCC[C@H](F)C4)c4ccccc34)cccc12)NC(=O)C1(C(F)(F)F)CCN(CC(F)F)CC1 [Compound 859] | < 10 nM | > 1000 nM
8 | O=C(O)[C@H](Cc1cccc2c(-c3ncc(CN4CCC[C@@H](F)C4)c4ccccc34)cccc12)NC(=O)C1(C(F)(F)F)CCN(CC(F)F)CC1 [Compound 860] | < 10 nM | > 1000 nM
9 | CC1(C)CCN(Cc2cnc(-c3cccc4c(C[C@H](NC(=O)C5(C(F)(F)F)CCN(CC(F)F)CC5)C(=O)O)cccc34)c3ccccc23)CC1 [Compound 861] | < 10 nM | 100 to 1000 nM
10 | O=C(O)[C@H](Cc1cccc2c(-c3ncc(CN4CCOCC4)c4ccccc34)cccc12)NC(=O)C1(C(F)(F)F)CCN(CC(F)(F)F)CC1 [Compound 862] | < 10 nM | > 1000 nM
11 | C[C@@H]1CN(Cc2cnc(-c3cccc4c(C[C@H](NC(=O)C5(C(F)(F)F)CCN(CC(F)(F)F)CC5)C(=O)O)cccc34)c3ccccc23)C[C@H](C)O1 [Compound 863] | 10 to 100 nM | > 1000 nM
12 | O=C(O)[C@H](Cc1cccc2c(-c3nccc4cccc(CN5CCCCC5)c34)cccc12)NC(=O)C1(C(F)(F)F)CCN(CC(F)(F)F)CC1 [Compound 864] | < 10 nM | > 1000 nM
13 | O=C(O)[C@H](Cc1cccc2c(-c3ncc(CN4CC(F)C4)c4ccccc34)cccc12)NC(=O)C1(C(F)(F)F)CCN(CC(F)(F)F)CC1 [Compound 865] | 10 to 100 nM | > 1000 nM
14 | COC1CN(Cc2cnc(-c3cccc4c(C[C@H](NC(=O)C5(C(F)(F)F)CCN(CC(F)(F)F)CC5)C(=O)O)cccc34)c3ccccc23)C1 [Compound 866] | < 10 nM | > 1000 nM
15 | O=C(O)[C@H](Cc1cccc2c(-c3ncc(CN4CC5CC(C4)O5)c4ccccc34)cccc12)NC(=O)C1(C(F)(F)F)CCN(CC(F)(F)F)CC1 [Compound 867] | < 10 nM | > 1000 nM
16 | O=C(O)[C@H](Cc1cccc2c(-c3ncc(CN4CCN(C5CC5)CC4)c4ccccc34)cccc12)NC(=O)C1(C(F)(F)F)CCN(CC(F)(F)F)CC1 [Compound 868] | < 10 nM | > 1000 nM
17 | O=C(O)[C@H](Cc1cccc2c(-c3ncc(CN4CCCC(F)(F)CC4)c4ccccc34)cccc12)NC(=O)C1(C(F)(F)F)CCN(CC(F)(F)F)CC1 [Compound 869] | 10 to 100 nM | > 1000 nM
18 | O=C(O)[C@H](Cc1cccc2c(-c3ncc(CN4CCOCC45CC5)c4ccccc34)cccc12)NC(=O)C1(C(F)(F)F)CCN(CC(F)(F)F)CC1 [Compound 870] | < 10 nM | > 1000 nM
19 | O=C(O)[C@H](Cc1cccc2c(-c3ncc(CN4CCC(F)CC4)c4ccccc34)cccc12)NC(=O)C1(C(F)(F)F)CCN(CC(F)(F)F)CC1 [Compound 871] | 10 to 100 nM | > 1000 nM
20 | O=C(O)[C@H](Cc1cccc2c(-c3ncc(CN4CC5CCC(C4)O5)c4ccccc34)cccc12)NC(=O)C1(C(F)(F)F)CCN(CC(F)(F)F)CC1 [Compound 872] | 10 to 100 nM | > 1000 nM
21 | CC1(C)CCCN(Cc2cnc(-c3cccc4c(C[C@H](NC(=O)C5(C(F)(F)F)CCN(CC(F)(F)F)CC5)C(=O)O)cccc34)c3ccccc23)C1 [Compound 873] | 10 to 100 nM | > 1000 nM
22 | O=C(O)[C@H](Cc1cccc2c(-c3ncc(CN4CCC(C(F)(F)F)CC4)c4ccccc34)cccc12)NC(=O)C1(C(F)(F)F)CCN(CC(F)(F)F)CC1 [Compound 874] | 10 to 100 nM | > 1000 nM

Row | Compound | IC50 (α4β7 integrin) | IC50 (α4β1 integrin)
23 | CC1CCN(Cc2cnc(-c3cccc4c(C[C@H](NC(=O)C5(C(F)(F)F)CCN(CC(F)(F)F)CC5)C(=O)O)cccc34)c3ccccc23)CCC1(F)F (some centres unmarked) [Compound 875] | 10 to 100 nM | > 1000 nM
24 | CC1(C)CCCN(Cc2cnc(-c3cccc4c(C[C@H](NC(=O)C5(C(F)(F)F)CCN(CC(F)(F)F)CC5)C(=O)O)cccc34)c3ccccc23)CC1 [Compound 876] | < 10 nM | > 1000 nM
25 | O=C(O)[C@H](Cc1cccc2c(-c3ncc(CN4CCOCC4)c4ccccc34)cccc12)NC(=O)C1(C(F)(F)F)CCN(CC(F)F)CC1 [Compound 878] | < 10 nM | 100 to 1000 nM
26 | O=C(O)[C@H](Cc1cccc2c(-c3ncc(CN4CCC(C(F)(F)F)CC4)c4ccccc34)cccc12)NC(=O)C1(C(F)(F)F)CCN(CC(F)F)CC1 [Compound 879] | 10 to 100 nM | > 1000 nM
27 | Cc1cc(CN2CCCCC2)cnc1-c1cccc2c(C[C@H](NC(=O)C3(C(F)(F)F)CCN(CC(F)(F)F)CC3)C(=O)O)cccc12 [Compound 880] | < 10 nM | > 1000 nM
28 | O=C(O)[C@H](Cc1cccc2c(-c3ncc(CN4CCCCC4)cc3C(F)(F)F)cccc12)NC(=O)C1(C(F)(F)F)CCN(CC(F)(F)F)CC1 [Compound 881] | 10 to 100 nM | > 1000 nM
29 | O=C(O)[C@H](Cc1cccc2c(-c3ncc(CN4CCCCC4)cc3C3CC3)cccc12)NC(=O)C1(C(F)(F)F)CCN(CC(F)(F)F)CC1 [Compound 882] | < 10 nM | 100 to 1000 nM
30 | O=C(O)[C@H](Cc1cccc2c(-c3ncc(CN4CCC5(CC4)CC5)c4ccccc34)cccc12)NC(=O)C1(C(F)(F)F)CCN(CC(F)(F)F)CC1 [Compound 883] | < 10 nM | > 1000 nM
31 | O=C(O)[C@H](Cc1cccc2c(-c3ncc(CN4C5CCCC4CC5)c4ccccc34)cccc12)NC(=O)C1(C(F)(F)F)CCN(CC(F)(F)F)CC1 [Compound 884] | < 10 nM | > 1000 nM
32 | O=C(O)[C@H](Cc1cccc2c(-c3ncc(CN4CC5CC(C5)C4)c4ccccc34)cccc12)NC(=O)C1(C(F)(F)F)CCN(CC(F)(F)F)CC1 [Compound 885] | < 10 nM | > 1000 nM
33 | O=C(O)[C@H](Cc1cccc2c(-c3ncc(CN4CCC5(CCC5)C4)c4ccccc34)cccc12)NC(=O)C1(C(F)(F)F)CCN(CC(F)(F)F)CC1 [Compound 886] | < 10 nM | > 1000 nM
34 | O=C(O)[C@H](Cc1cccc2c(-c3ncc(CN4CC5(CC5)C4)c4ccccc34)cccc12)NC(=O)C1(C(F)(F)F)CCN(CC(F)(F)F)CC1 [Compound 887] | < 10 nM | > 1000 nM
35 | O=C(O)[C@H](Cc1cccc2c(-c3ncc(CN4CCCCC4)c4ccccc34)cccc12)NC(=O)C1(C(F)(F)F)CCN(CC(F)F)CC1 [Compound 888] | < 10 nM | > 1000 nM
36 | COc1cc(CN2CCC(C)(C)CC2)cnc1-c1cccc2c(C[C@H](NC(=O)C3(C(F)(F)F)CCN(CC(F)(F)F)CC3)C(=O)O)cccc12 [Compound 890] | < 10 nM | > 1000 nM
37 | O=C(O)[C@H](Cc1cccc2c(-c3cc(C(F)(F)F)c(CN4CCCCC4)cn3)cccc12)NC(=O)C1(C(F)(F)F)CCN(CC(F)(F)F)CC1 [Compound 891] | 100 to 1000 nM | > 1000 nM
38 | C[C@@H]1CN(Cc2cnc(-c3cccc4c(C[C@H](NC(=O)C5(C(F)(F)F)CCN(CC(F)(F)F)CC5)C(=O)O)cccc34)c3ccccc23)C[C@H](C)N1C1CC1 [Compound 892] | < 10 nM | 100 to 1000 nM
39 | C[C@@H]1CN(Cc2cnc(-c3cccc4c(C[C@H](NC(=O)C5(C(F)(F)F)CCN(CC(F)(F)F)CC5)C(=O)O)cccc34)c3ccccc23)C[C@H](C)N1 [Compound 893] | < 10 nM | 100 to 1000 nM
40 | CC(C)Oc1cc(CN2CCCCC2)cnc1-c1cccc2c(C[C@H](NC(=O)C3(C(F)(F)F)CCN(CC(F)(F)F)CC3)C(=O)O)cccc12 [Compound 894] | < 10 nM | 100 to 1000 nM
41 | O=C(O)[C@H](Cc1cccc2c(-c3ccc(CN4CCCCC4)cn3)cccc12)NC(=O)C1(C(F)(F)F)CCN(CC(F)F)CC1 [Compound 896] | 10 to 100 nM | > 1000 nM
42 | O=C(O)[C@H](Cc1cccc2c(-c3ncc(CN4CCCCC4)cc3C3CC3)cccc12)NC(=O)C1(C(F)(F)F)CCN(CC(F)F)CC1 [Compound 898] | < 10 nM | > 1000 nM
43 | Cc1cc(CN2CCC(C(F)(F)F)CC2)cnc1-c1cccc2c(C[C@H](NC(=O)C3(C(F)(F)F)CCN(C4COC4)CC3)C(=O)O)cccc12 [Compound 900] | < 10 nM | > 1000 nM
